Experiments:
SA5 (ATCC 49521) = assay: Effect of antibiotics and lysostaphin on growth of SA5 (% T, 96-well); format: cell-based, Staphylococcus aureus; settings: for inhibition and killing of the staph by antibiotic alone: antibiotic alone at 25 or 12.5 mg/ml, 5 and 22 hours
Method: It was determined whether low levels of lysostaphin would act synergistically with Nafcillin or Oxacillin to kill an SA5 (ATCC 49521). The study was performed in a 96-well dish to allow titration of lysostaphin and antibiotics. The end point was % T. Plating of bacteria from the assay plate was not done.
Fifty μl of SA5 (ATCC 49521) was reconstituted from a frozen stock and grown overnight on a blood agar plate at 37° C. Bacteria were transferred from the blood agar plate (approximately 25% of the lawn) into 30 mls of TSB and grown for 2 hours at 37° C. on a rotating shaker set at 250 rpm. […] A 1:4 dilution of this suspension in TSB gave a % T of ˜50% in a 96 well dish.
For the assay, lysostaphin (Sigma Cat L7386; lot 063M4011V; 3387.5 units/ml stock in water) was diluted in three-fold dilutions (in TSB) from 3 units/ml (row A) to 0.0123 units/ml (row G) in 50 μl/well. The wells in row H received TSB alone. This plate was designated the assay plate. In a separate 96-well plate (i.e. the dilution plate), Nafcillin (Sigma Cat N3269; lot SLBF8230V, 50 mg/ml in water) was diluted in TSB to 25 mg/ml and a second dilution of 12.5 mg/ml was also prepared (columns 1 and 2 of the dilution plate). Oxacillin (Sigma Cat 01002; lot SLBC9948V; 50 mg/ml in water) was diluted to 25 mg/ml in TSB and a second dilution of 12.5 mg/ml was also prepared (columns 4 and 5 of the dilution plate).
Fifty μl of the antibiotic solutions were transferred to the corresponding wells of the assay plate containing the lysostaphin solution. 50 μl of TSB alone was transferred to columns 3 and 6 (i.e. no antibiotic controls) of the assay plate. The combination of antibiotics and lysostaphin yielded a volume of 100 μl. 125 μl of S. aureus 49521, diluted 1:2 in TSB was then added to all wells of the plate, except wells H1, H2, H4 and H5, which served as the blank well for determining the % T. After addition of the bacteria, and between each determination of the % T, the plate was incubated at 37° C. with gentle rotation (˜50 rpm). The % T was then determined at 2 and 15 minutes after addition of the bacteria, and again at 5 hours and 22 hours after addition of the bacteria.

[1] = test system: S. aureus type 5 (ATCC 49521); assay: % T (turbidity) lysis assay of S. aureus type 5 suspension in tubes; format: cell-based, Staphylococcus aureus; settings: 10 minutes at 37° C.
Method: 50 μl of S. aureus type 5 (ATCC 49521) was plated onto blood agar plates and incubated overnight. The resulting bacterial lawn was transferred to 30 mls of TSB (tryptic soy broth; Remel cat 112740) and incubated at 37° C. for about 60 minutes at 225 rpm. The percent transmission (% T) of the bacterial suspension following incubation was about 7%. The % T was adjusted to 53% by addition of 100 μl of bacterial suspension to 4500 μl of TSB (in five individual tubes) and the % T was measured in each tube. An additional tube contained TSB alone. Tube #1 received no lysostaphin. Tube #2 was designated to receive 550 μl of recombinant lysostaphin, but the lysostaphin was erroneously added to Tube #3, and thus, Tube #2 was discarded. Tube #3 received 550 μl recombinant lysostaphin (from a 2,000 μg/ml stock solution) for a final concentration of about 220 μg/ml (this tube erroneously received lysostaphin dose intended for tube #2 (i.e. 500 μl of lysostaphin stock) plus the 50 μl of lysostaphin originally intended for this tube. Tube #4 received 500 μl of natural lysostaphin from S. staphylolyticus (from a 2,000 μg/ml stock solution) for a final concentration of about 200 μg/ml. Tube #5 received 50 μl of natural lysostaphin from S. staphylolyticus (from a 2,000 μg/ml stock solution) for a final concentration of about 20 μg/ml. The tubes were vortexed, incubated at 37° C. for 10 minutes at 150 rpm and the % T for each determined (see FIG. 3 which is summarized in Table 2). An increase in the % T indicates killing of bacteria. Both lysostaphins were highly likely active against this SA5.

SA5 = assay: % T lysis assay of SA5 in 96-well configuration; format: cell-based, Staphylococcus aureus; settings: 0.1 μg/ml; for change in % T / killing: neat solution of SA5, 10 minutes at 37° C. (FIG. 4)
Method: A second assay was performed in which the SA5 and lysostaphin were tested in a 96-well configuration. For this assay, 100 μl of the SA5 solution was added to wells followed by 100 μl of the lysostaphin solution. % T was obtained at TO and the plate incubated at 37° C. for 10 minutes with gentle rotation. The % T was obtained and the results compared.

S. aureus cells [2] = assay: Enzymatic activity per certificate of analysis (COA); format: biochemical, Staphylococcus aureus; settings: from COAs of both products
Method: Doses may also be as international units. One international unit (IU) is about 3.1 μg and will reduce the turbidity (A620) of a suspension of S. aureus cells from 0.250 to 0.125 in 10 minutes at pH 7.5 at 37° C. in a 6.0 ml reaction mixture.

S. aureus cells [3] = settings: from COA; cited from earlier work
[4] = test system: anti-lysostaphin antibodies; assay: Assay of mouse sera on lysostaphin-coated plates after immunization; format: binding; settings: gamma-specific detection, compared with the other lysostaphin as coating antigen, regardless of the immunogen
Method: Assay of mouse sera on plates coated with lysostaphin from simulans expressed as recombinant in E coli and coated with natural lysostaphin from S. staphylolyticus. Mice received a primary immunization (subcutaneous) with 10 μg recombinant lysostaphin from E. coli (Sigma-Aldrich) (animal numbers 8603, 8604) or 10 μg of natural lysostaphin from S. staphylolyticus (Sigma-Aldrich) (animal numbers 8621-8623). Primary immunization was administered and boosted about three weeks later. No adjuvant was used for the immunizations. Serum samples were tested using gamma-specific detection (FIGS. 1 and 2). Bars represent binding seen with normal serum (first bar), serum after the first injection (second bar), and serum after the boost injection three weeks later (third and in most cases largest bar). The results on wells coated with simulans lysostaphin (FIG. 1) were stronger than the results on wells coated with staphylolyticus lysostaphin (FIG. 2), regardless of the immunogen. Mouse 8621 was poorly reactive on both coating antigens. Note that each graph is scaled to 1.500 on the y-axis for comparison purposes.

CCOc1ccc2ccccc2c1C(=O)N[C@@H]1C(=O)N2[C@@H]1SC(C)(C)[C@@H]2C(=O)O [Nafcillin, reference compound]
inhibition and killing of the staph by antibiotic alone (SA5 (ATCC 49521)): ineffective rapid inhibition and killing

Cc1onc(-c2ccccc2)c1C(=O)N[C@@H]1C(=O)N2[C@@H]1SC(C)(C)[C@@H]2C(=O)O [Oxacillin, reference compound]
inhibition and killing of the staph by antibiotic alone (SA5 (ATCC 49521)): ineffective rapid inhibition and killing

lysostaphin: lysostaphin (Sigma Cat L7386; lot 063M4011V; 3387.5 units/ml stock in water); 27 kD glycylglycine endopeptidase
synergy of lysostaphin with the antibiotics (SA5 (ATCC 49521); lysostaphin 0.0123 units/ml with Nafcillin or Oxacillin, 5 to 22 hours): acted synergistically
% T (SA5 (ATCC 49521); lysostaphin 0.0123 units/ml without antibiotic, 5 hours, FIG. 8): 97.0 % T
% T (SA5 (ATCC 49521); lysostaphin 0.0123 units/ml without antibiotic, 5 hours, FIG. 11): 98.0 % T
% T (SA5 (ATCC 49521); lysostaphin 0.0123 units/ml without antibiotic, 22 hours, FIG. 8): 75.4 % T
% T (SA5 (ATCC 49521); lysostaphin 0.0123 units/ml without antibiotic, 22 hours, FIG. 11): 60.2 % T
% T (SA5 (ATCC 49521); lysostaphin 0.0123 units/ml, within 5 hours): > 95 % T
% T (SA5 (ATCC 49521); lysostaphin at concentrations higher than 0.0123 units/ml, at 5 (not shown)): > 95%
% T (SA5 (ATCC 49521); most concentrations of lysostaphin, without antibiotics, after 22 hours): below 70%

natural lysostaphin: natural lysostaphin from S. staphylolyticus (Sigma-Aldrich)
Ending % T ([1]; 20 μg/ml, tube 5): 95.0 % T
Ending % T ([1]; 200 μg/ml, tube 4): 94.6 % T
change in % T (SA5; SA5 at a dilution of 1:2 vs neat SA5 (FIG. 5)): greater change
change in % T / killing (SA5): increased only slightly

recombinant lysostaphin: lysostaphin from simulans expressed as recombinant in E. coli (Sigma-Aldrich)
activity relative to natural lysostaphin (S. aureus cells [2]): 6-7 fold
Ending % T ([1]; 220 μg/ml, tube 3, increase in % T indicates killing): 94.0 % T
change in % T / killing (SA5): remained strong
enzymatic activity (S. aureus cells [3]): greater than 3,000 units per mg
binding of mouse serum antibodies to the coated lysostaphin [4]: markedly higher binding
binding of mouse serum antibodies to the coated lysostaphin ([4]; listed as simulans lysostaphin): stronger
